According to PubChem BioAssay (NCI):
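A five-concentration, 48-hour dose response in 96-well plates underlies each endpoint, interpolated linearly between surrounding concentrations. GI50: concentration for 50% inhibition of growth. TGI denotes the concentration required for complete inhibition of growth.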

Assays:
Assay in all cases: NCI anticancer screen, dose series, 48 h
[1] = tested on: 786-0 renal
[2] = tested on: A498 renal
[3] = tested on: A549 NSCLC
[4] = tested on: ACHN renal
[5] = tested on: BT-549 breast
[6] = tested on: CAKI-1 renal
[7] = tested on: CCRF-CEM leukemia
[8] = tested on: COLO 205 colon
[9] = tested on: DU-145 prostate
[10] = tested on: HCC-2998 colon
[11] = tested on: HCT-116 colon
[12] = tested on: HCT-15 colon
[13] = tested on: HL-60(TB) leukemia
[14] = tested on: HOP-62 NSCLC
[15] = tested on: HOP-92 NSCLC
[16] = tested on: HS 578T breast
[17] = tested on: HT29 colon
[18] = tested on: IGROV1 ovarian
[19] = tested on: K-562 leukemia
[20] = tested on: KM12 colon
[21] = tested on: LOX IMVI melanoma
[22] = tested on: M14 melanoma
[23] = tested on: MALME-3M melanoma
[24] = tested on: MCF7 breast
[25] = tested on: MDA-MB-231 breast
[26] = tested on: MDA-MB-435
[27] = tested on: MOLT-4 leukemia
[28] = tested on: NCI-H226 lung
[29] = tested on: NCI-H23 lung

With `CN=C1NC(=O)/C(=C/c2ccc3ncccc3c2)S1` the GI50 [1] was 10.7 µM, the TGI [1] was > 25 µM and the GI50 [2] was 3.86 µM. The TGI [2] was 13.7 µM, the GI50 [3] was 5.13 µM and the TGI [3] was > 25 µM. For the same compound, the GI50 [4] was 6.77 µM, the TGI [4] was > 25 µM and the GI50 [5] was 6.12 µM. For the same compound, the TGI [5] was > 23 µM, the GI50 [6] was 4.6 µM and the TGI [6] was > 20.9 µM. The GI50 [7] was 7.81 µM, the TGI [7] was > 25 µM and the GI50 [8] was 7.45 µM. For the same compound, the TGI [8] was > 25 µM, the GI50 [9] was 5.78 µM and the TGI [9] was > 25 µM. For the same compound, the GI50 [10] was > 20 µM, the TGI [10] was > 25 µM and the GI50 [11] was 5.29 µM. For the same compound, the TGI [11] was > 25 µM, the GI50 [12] was 6.09 µM and the TGI [12] was > 25 µM. For the same compound, the GI50 [13] was 8.73 µM, the TGI [13] was > 25 µM and the GI50 [14] was 10.3 µM. The TGI [14] was > 25 µM, the GI50 [15] was 8.03 µM and the TGI [15] was > 25 µM. For the same compound, the GI50 [16] was 6.24 µM, the TGI [16] was > 21 µM and the GI50 [17] was 9.14 µM. For the same compound, the TGI [17] was > 25 µM, the GI50 [18] was 8.53 µM and the TGI [18] was > 25 µM. For the same compound, the GI50 [19] was 13.7 µM, the TGI [19] was > 25 µM and the GI50 [20] was 19.9 µM. For the same compound, the TGI [20] was > 25 µM, the GI50 [21] was 6.74 µM and the TGI [21] was > 25 µM. The GI50 [22] was 9.6 µM, the TGI [22] was > 25 µM and the GI50 [23] was 16 µM. The TGI [23] was > 25 µM, the GI50 [24] was 6.21 µM and the TGI [24] was > 25 µM. For the same compound, the GI50 [25] was 18.5 µM, the TGI [25] was > 25 µM and the GI50 [26] was 4.06 µM. The TGI [26] was > 25 µM, the GI50 [27] was 11.2 µM and the TGI [27] was > 25 µM. The GI50 [28] was 8.16 µM, the TGI [28] was > 25 µM and the GI50 [29] was 8.38 µM.
